The source of these data is ChEMBL document CHEMBL1154822, “Synthesis and antiproliferative activity of 7-azaindirubin-3'-oxime, a 7-aza isostere of the natural indirubin pharmacophore” (J Nat Prod, 2009).

Molecules are shown by their SMILES.

What all share (format): functional
Experiment [1] relates to CCRF-CEM. As to the kind of experiment: Cytotoxicity against human CCRF-CEM cells assessed as cell growth at 0.1 uM after 1 to 11 days by MTT assay. The note with it: read-out: Activity.
The test system of the next experiment is ACHN. The experiment in a line: Cytotoxicity against human ACHN cells after 1 to 11 days by MTT assay.
The next experiment deals with SR. As to the kind of experiment: Cytotoxicity against human SR cells assessed as cell growth at 10 uM after 1 to 11 days by MTT assay. As to conditions: read-out: Activity.
The subject of experiment [2] is CCRF-CEM. The experiment in a line: Cytotoxicity against human CCRF-CEM cells after 1 to 11 days by MTT assay.
The test system of experiment [3] is MOLT-4. As to the kind of experiment: Cytotoxicity against human MOLT4 cells assessed as cell growth at 1 uM after 1 to 11 days by MTT assay. The note with it: read-out: Activity.
Experiment [4] can be described thus: Cytotoxicity against human Hs 578T cells assessed as cell growth at 1 uM after 1 to 11 days by MTT assay. The note with it: read-out: Activity.
For the next experiment, the system named is Malme-3M. The experiment in a line: Cytotoxicity against human MALME-3M cells after 1 to 11 days by MTT assay.
The next experiment concerns KM12. The experiment in a line: Cytotoxicity against human KM12 cells assessed as cell growth at 0.1 uM after 1 to 11 days by MTT assay. As to conditions: read-out: Activity.
The next experiment concerns UO-31. The experiment in a line: Cytotoxicity against human UO31 cells after 1 to 11 days by MTT assay.
Another experiment concerns NCI-H322M. As to the kind of experiment: Cytotoxicity against human NCI-H322M cells assessed as cell growth at 0.1 uM after 1 to 11 days by MTT assay. As to conditions: read-out: Activity.
Another experiment concerns SW-620. As to the kind of experiment: Cytotoxicity against human SW620 cells assessed as cell growth at 0.1 uM after 1 to 11 days by MTT assay. The note with it: read-out: Activity.
Another experiment deals with M14. The experiment in a line: Cytotoxicity against human M14 cells assessed as cell growth at 10 uM after 1 to 11 days by MTT assay. The note with it: read-out: Activity.
The test system of the next experiment is SF-268. The experiment in a line: Cytotoxicity against human SF268 cells assessed as cell growth at 1 uM after 1 to 11 days by MTT assay. As to conditions: read-out: Activity.
Experiment [5] concerns MOLT-4. The experiment in a line: Cytotoxicity against human MOLT4 cells assessed as cell growth at 100 uM after 1 to 11 days by MTT assay. The note with it: read-out: Activity.
The mark [6] stands for this setting: read-out: LC50 (the source's name).

Consider `O=C1Nc2ncccc2/C1=C1/Nc2ccccc2/C1=N\O`, for which the growth at 0.1 µM is 94% in the experiment with CCRF-CEM [1], 95% in the experiment with KM12, 95% in the experiment on NCI-H322M and 99% in the experiment on SW-620. The GI50 with ACHN was determined as 2.68 µM; in the experiment on CCRF-CEM [2] it was 5.07 µM; in the experiment with Malme-3M, 3.36 µM; in the experiment with UO-31, 1.58 µM. For the same compound, the TGI was over 100 µM in the experiment with ACHN, over 100 µM in the experiment on CCRF-CEM [2], 172 µM in the experiment on Malme-3M and over 100 µM with UO-31. Further, the CC50 with ACHN (setting [6]), in the experiment with CCRF-CEM [2] (setting [6]), in the experiment on Malme-3M (setting [6]) and with UO-31 (setting [6]) was over 100 µM each time. Also, the growth at 10 µM with SR turned out to be 147%; with M14, 86%. For the same compound, the growth at 1 µM amounted to 77% in the experiment on MOLT-4 [3], 98% in [4] and 99% with SF-268. The growth at 100 µM with MOLT-4 [5] came to 26%.
